22 compounds from patent US5298652A, “N-substituted glycines, inhibitors of phospholipase A2” (Hoffmann-La Roche Inc., priority 1992, dated 1994) can be followed below.

Assay [1] deals with T1, HSF-PLA2 (extracellular PLA2 obtained from human synovial fluid) (Homo sapiens, UniProt P14555).
T1 construct: extracellular enzyme obtained from human synovial fluid; from tissue; host or cells: human synovial fluid (pooled)
T1 sequence (P14555 21-144): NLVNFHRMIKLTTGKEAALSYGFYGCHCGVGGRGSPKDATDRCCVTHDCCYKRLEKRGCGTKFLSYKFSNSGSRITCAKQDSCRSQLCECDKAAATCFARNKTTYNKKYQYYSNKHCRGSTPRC
In words: Assay for inhibition of HSF-PLA2 in vitro. As to conditions: read-out: % Inhib of HSF-PLA2; for inhibition at 5 µM: 5 μM test compound; for inhibition at 1 µM: 1 μM test compound. Format: biochemical. As to the method: Assay for Inhibition of HSF-PLA2 In Vitro
The PLA2 used in this test is the extracellular enzyme obtained from human synovial fluid (HSF-PLA2).
The assay for HSF-PLA2 activity was a modification of the described method [Franson R., Dobrow R., Weiss, J., Elsbach P., and Weglick W. B., J. Lipid Res., 19, 18-23 (1978)] which was conducted using [1-^14 C]-oleate-labelled E. coli substrate in excess at a final concentration of 20,000 dpm/ml. This was equivalent to 18.2 mM of cell membrane phospholipid phosphorus and 2×10^9 autoclaved E. coli/ml. The optimal conditions which were developed for the assay of HSF-PLA2 inhibitors are summarized as follows. A total volume of 0.5 ml of reaction mixture typically had the following final composition: substrate (20,000 dpm/ml); enzyme (0.1% HSF, v/v); 2 mM CaCl2; 150 mM Na^+; 50 mM sodium HEPES buffer, pH 7.3; and 1% dimethyl sulfoxide (DMSO, used to solubilize test inhibitors) in the presence or absence of inhibitor. The reaction was initiated by the addition of HSF-PLA2 and duplicate samples of the mixture were incubated in 13×100 mm glass tubes with shaking for 30 minutes at 37° C. The reaction was terminated by the addition of 2.5 ml of chloroform-methanol (1 to 1.5, v/v). The extraction of lipids from the stopped reaction mixture was conducted by the further additions of 0.5 ml of chloroform and 1 ml of water with mixing. After centrifuging, the lower chloroform phase was transferred to smaller glass tubes and the solvent was evaporated to dryness with a nitrogen stream. The extracted lipid residue was redissolved in […] of a solution containing carrier oleic acid (0.2 mg/ml) in chloroform-methanol [9 to 1, v/v]). The whole lipid extract was applied to a preactivated (30 minutes at 110° C.) silica gel-impregnated glass fiber thin layer chromatography sheet (ITLC type SG sheet from Gelman Sciences Inc., Ann Arbor, Mich.) using hexane-acetic acid (100 to 1, v/v) as the developing solvent. This TLC system rapidly (6 minutes) resolved the enzymatically released product, ^14 C-oleic acid, from the unreacted ^14 C-phospholipid substrate. The unsaturated lipids were located on the chromatogram by a brief exposure to iodine vapor. The oleic acid zone (Rf value 0.95) and phospholipid zone (origin) were cut out, chopped into small pieces, shaken with 2 ml of ethanol-water (80 to 20, v/v) and 15 ml of Aquasol and counted for radio-activity. A control incubation of substrate in the absence of HSF-PLA2 was performed in each experiment. The PLA2 activity of the human synovial fluid was corrected for this small control value. […] The specific activity of PLA2 in the pooled human synovial fluid under the optimal assay conditions was 49.2 nmoles [1-^14 C]-oleic aid released hour^-1 mg^-1. The IC50 (μM concentration of test compound that produces 50% inhibition of PLA2 activity) was determined for each test compound.

Assay [2] has as its system croton oil-induced mouse ear edema. In words: Croton oil mouse ear edema test. Format: in vivo, male CD-1 mice. As to conditions: 1 mg topical, coapplied with croton oil; ear punch weight at 6 hours. How it is done:
Croton Oil Mouse Ear Edema Test
The croton oil-induced mouse ear edema test, a model of irritant-induced contact dermatitis, has been used for evaluation of the PLA2 inhibitors by the topical route of administration. This test was carried out as described in the following references: […]
Twenty five μl of a 1% croton oil solution [dissolved in a mixture of pyridine/water/diethyl ether at a ratio of 5/20/75 (croton oil vehicle)] are applied to the outer side of the right ear of 3-4 week old male CD-1 mice (8 animals per group). The test compounds are dissolved directly in the 1% croton oil solution at various concentrations and coapplied. Control animals receive 25 μl of croton oil vehicle on the right ear. Biopsy punches are removed at 6 hours from the right ear of the animals using a 6 mm skin trephine (Roboz, Washington, D.C.) and the wet weight of the ear punches is determined. The weight of the biopsy punches is a measure of ear inflammation, primarily edema. The data are expressed as percent inhibition relative to control groups.
Statistical analysis of the mean edema values of the control versus the treated groups is performed using Student's t-test. The significance of changes from mean value for vehicle-treated animals is as follows (*p<0.05, **p<0.01, ***p<0.005, ns/not significant).

Turning to `CCCCCCCCCCCCCCCCCCOc1cccc(C(=O)C(=O)N(CC(=O)O)CC(=O)O)c1` [Example 69, N-(Carboxymethyl)-N-[2-[3-(octadecyloxy)phenyl]-1,2-dioxoethyl]glycine], the inhibition at 5 µM in assay [1] came to 57%. The “% Inhib of Croton Oil Mouse Ear Edema (1 mg)” value (“% Inhib” below) in assay [2] is reported as 28%.
Consider `CCCCCCCCCCCCCCCCCCOc1cc(OCc2ccccc2)cc(C(=O)N(CC(=O)O)CC(=O)O)c1` [Example 38, N-(Carboxymethyl)-N-[3-(octadecyloxy)-5-(phenylmethoxy)benzoyl]glycine], for which, in assay [1], the inhibition at 5 µM turned out to be 55%. The “% Inhib” value in assay [2] was determined as 35%.
Taken in the same sequence, the figures for `CCCCCCCCCCCCCCCCCCOc1cc(O)cc(C(=O)N(CC(=O)O)CC(=O)O)c1` [Example 39, N-(Carboxymethyl)-N-[3-hydroxy-5-(octadecyloxy)benzoyl]glycine] were 20% and 47%.
For `CCCCCCCCCCCCCCCCCCOc1cc(OCCOc2ccc3ccccc3c2)cc(C(=O)N(CC(=O)O)CC(=O)O)c1` [Example 25], in assay [1], the inhibition at 5 µM is -16%. Further, the “% Inhib” value in assay [2] worked out at 44%.
For the compound `CCCCCCCCCCCCCCCCCCOc1cccc(C(=O)NCC(=O)O)c1` [Example 74, N-[3-(Octadecyloxy)benzoyl]glycine], the inhibition at 5 µM in assay [1] turned out to be 23%. Moreover, in assay [2], the “% Inhib” value is 33%.
For the compound `CCCCCCCCCCCCCCOc1ccc(C(=O)N(CC(=O)O)CC(=O)O)cc1OCCCCCCCCCCCCCC` [Example 51, N-(Carboxymethyl)-N-[3,4-bis(tetradecyloxy)benzoyl]glycine], in assay [1], the inhibition at 5 µM was 38%.
Still for that read-out and setting: to `CCCCCCCCCCCCCCCCCCOc1cc(C(=O)O)cc(C(=O)N(CC(=O)O)CC(=O)O)c1` [Example 30, N-(Carboxymethyl)-N-[3-carboxy-5-(octadecyloxy)benzoyl]glycine] belongs 23%.
For the compound `O=C(O)CCCCCCCCCCOc1cc(OCCCCCCCCCCC(=O)O)cc(C(=O)N(CC(=O)O)CC(=O)O)c1` [Example 35, N-(carboxymethyl)-N-[3,5-bis[(10-carboxydecyl)oxy]benzoyl]glycine], the inhibition at 5 µM in assay [1] was found to be 5%. Further, in assay [2], the “% Inhib” value was 50%.
Consider `CCCCCCCCCCCCCCCCCCOc1cc(N)cc(C(=O)N(CC(=O)O)CC(=O)O)c1` [Example 44, N-(Carboxymethyl)-N-[3-amino-5-(octadecyloxy)benzoyl]glycine], for which the inhibition at 5 µM in assay [1] worked out at 34%. For the same compound, the “% Inhib” value in assay [2] was 35%.
Taken in the same sequence, the figures for `CCCCCCCCCCCCCCCCCCOc1cccc(CC(=O)N(CC(=O)O)CC(=O)O)c1` [Example 76, N-(Carboxymethyl)-N-[3-(octadecyloxy)phenylacetyl]glycine] were 45% and 38%.
Turning to `CCCCCCCCCCCCCCCCCCOc1cc(OCCCOc2ccccc2)cc(C(=O)N(CC(=O)O)CC(=O)O)c1` [Example 18, N-(Carboxymethyl)-N-[3-[3-(phenoxy)propoxy]-5-(octadecyloxy)benzoyl]glycine], the inhibition at 5 µM in assay [1] came to 72%. For the same compound, in assay [2], the “% Inhib” value is on record as 59%.
With `CCCCCCCCCCCCCCCCCCOc1cc(C(=O)N(CC(=O)O)CC(=O)O)cc([N+](=O)[O-])c1` [Example 43, N-(carboxymethyl)-N-[3-nitro-5-(octadecyloxy)benzoyl]glycine], the inhibition at 5 µM in assay [1] was 10%. In addition, the “% Inhib” value in assay [2] amounted to 48%.
Taken in the same sequence, the figures for `CCCCCCCCCCCCCCCCCC(=O)Nc1cccc(C(=O)N(CC(=O)O)CC(=O)O)c1` [Example 9, N-(carboxymethyl)-N-[3-(1-oxooctadecylamino)benzoyl]glycine] were 8% and 20%.
On to `CCCCCCCCCCCCCCCCCCOc1cccc(CCC(=O)N(CC(=O)O)CC(=O)O)c1` [Example 79, N-(Carboxymethyl)-N-[3-[(3-octadecyloxy)phenyl]-1-oxopropyl]glycine], for which the inhibition at 5 µM in assay [1] came out at 70%.
On to `CCCCCCCCCCCCCCCCCCOc1cc(OCCCOc2ccc(OC)cc2)cc(C(=O)N(CC(=O)O)CC(=O)O)c1` [Example 20, N-(carboxymethyl)-N-[3-[3-(4-methoxyphenoxy)propoxy]-5-(octadecyloxy)benzoyl]glycine], for which the inhibition at 1 µM in assay [1] is 18%.
As for `CCCCCCCCCCCCCCCCCCOc1cccc(/C=C/C(=O)N(CC(=O)O)CC(=O)O)c1` [Example 78, (E)-N-(carboxymethyl)-N-[3-[(3-octadecyloxy)phenyl]-1-oxo-2-propenyl]glycine], the inhibition at 5 µM in assay [1] came out at 68%. Moreover, the “% Inhib” value in assay [2] is recorded as 48%.
Consider `CCCCCCCCCCOc1cccc(C(=O)N(CC(=O)O)CC(=O)O)c1` [Example 6, N-(Carboxymethyl)-N-[3-(decyloxy)benzoyl]glycine], for which the inhibition at 5 µM in assay [1] turned out to be 8%. The “% Inhib” value in assay [2] is 47%.
Take `CCCCCCCCCCCCCCCCCCOc1cc(OCC(=O)O)cc(C(=O)N(CC(=O)O)CC(=O)O)c1` [Example 33, N-(Carboxymethyl)-N-[3-(carboxymethoxy)-5-(octadecyloxy)benzoyl]glycine]: the inhibition at 1 µM in assay [1] stood at 29%. The “% Inhib” value in assay [2] is recorded as 71%.
On to `CCCCCCCCCCCCCCOc1cccc(C(=O)N(CC(=O)O)CC(=O)O)c1` [Example 5, N-(Carboxymethyl)-N-[3-(tetradecyloxy)benzoyl]glycine], for which the inhibition at 5 µM in assay [1] was 13%.
Consider `CCCCCCCCCCCCCCCCCCOc1cc(OCCCOc2cccc(N)c2)cc(C(=O)N(CC(=O)O)CC(=O)O)c1` [Example 23, N-(Carboxymethyl)-N-[3-[3-(3-aminophenoxy)propoxy]-5-(octadecyloxy)benzoyl]glycine], for which the inhibition at 5 µM in assay [1] came out at 50%. Besides, in assay [2], the “% Inhib” value is listed as 21%.
For the compound `CCCCCCCCCCCCCCOc1cc(OCCCCCCCCCCCCCC)cc(C(=O)N(CC(=O)O)CC(=O)O)c1` [Example 13, N-(Carboxymethyl)-N-[3,5-bis(tetradecyloxy)benzoyl]glycine], the inhibition at 1 µM in assay [1] amounted to 27%. The “% Inhib” value in assay [2] is 60%.
With `CCCCCCCCCCCCCCCCCCOc1cc(OCCCOc2cccc([N+](=O)[O-])c2)cc(C(=O)N(CC(=O)O)CC(=O)O)c1` [Example 22, N-(Carboxymethyl)-N-[3-[3-(3-nitrophenoxy)propoxy]-5-(octadecyloxy)benzoyl]glycine], the inhibition at 5 µM in assay [1] worked out at 60%. In assay [2], the “% Inhib” value was 54%.
